Measurements as given in US20190231411A1, “METHOD FOR PREDICTING CYTOTOXICITY OF COLD ATMOSPHERIC PLASMA TREATMENT ON CANCER CELLS” (U.S. Patent Innovations, LLC, priority 2018, published 2019).

Test system: B16F10 cells
Test: H2O2 treatment, MTT cell viability assay
Format: cell-based, murine
Settings: compared with the other cell lines, FIG. 7B
Procedure: Cell cultures. The experiment investigated 10 cancer cell lines, which include many representative cell lines in plasma medicine. Human pancreas ductal adenocarcinoma cell line (PANC-1) was purchased from American Type Culture Collection (ATCC). Other cell lines were donated by several labs at the George Washington University. These cells were all purchased from ATCC by the different labs. Human pancreatic adenocarcinoma cell line (PA-TU-8988T), human glioblastoma cell line (U87MG), as well as human lung carcinoma cell line (A549) were provided by Dr. Murad's lab. Human breast cancer cell lines (MDA-MB-231, MCF-7) were provided by Dr. Zhang's lab. Human ovarian carcinoma cell line (SK-OV-3), human ovarian carcinoma cell line (IGROV-1), human colorectal carcinoma cell line (HCT116), as well as human bone osteosarcoma cell line (U-2 OS) were provided by Dr. Zhu's lab. Murine melanoma cell line (B16F10) was provided by Dr. Sotomayor's lab. […]
Cell viability assay. […] The absorbance at 570 nm was measured by a H1 microplate reader (Hybrid Technology). The measured absorbance was processed to be a relative cell viability by the division between the data of the experimental group and the control group.

OO [H2O2]
resistance to H2O2 treatment: strongest resistance to H2O2 treatment
